Molecules are shown by their SMILES.

The results in this text go back to PMC7080406 (eLife, 2020).

The target of one assay is T1, MT1 (Homo sapiens, UniProt P48039).
T1 construct: expressed in transfected cells; host or cells: HEK293T (ATCC CRL-11268), transient transfection
In words: [3H]melatonin competition radioligand binding, MT1 membranes. To be noted: read-out: MT1 pKi ± SEM (converted). The procedure:
(§1) The Radioligand binding assays were conducted by the NIMH Psychoactive Drug Screening Program (PDSP). The NIMH PDSP is directed by Bryan L. Roth, MD, PhD, at the University of North Carolina at Chapel Hill, North Carolina, and Program Officer Jamie Driscoll at NIMH, Bethesda, MD. Binding assay procedures and protocols are also available online at http://pdspdb.unc.edu/pdspWeb/?site=assays. […] Assay plates were sealed and incubated for 4 hr at 37°C in a humidified incubator until harvesting. Plates were harvested using vacuum filtration onto 0.3% polyethyleneimine pre-soaked 96-well Filtermat A (PerkinElmer) and washed three times with cold wash buffer (50 mM Tris, pH 7.4). Filters were dried and melted with a scintillation cocktail (Meltilex, PerkinElmer). Radioactivity was counted using a Wallac TriLux Microbeta counter (PerkinElmer). Results were analyzed using GraphPad Prism 7.0.

Another assay deals with T2, MT1 wildtype (WT) (Homo sapiens, UniProt P48039).
T2 construct: host or cells: HTLA cells (HEKT based)
T2 sequence (P48039 whole entry): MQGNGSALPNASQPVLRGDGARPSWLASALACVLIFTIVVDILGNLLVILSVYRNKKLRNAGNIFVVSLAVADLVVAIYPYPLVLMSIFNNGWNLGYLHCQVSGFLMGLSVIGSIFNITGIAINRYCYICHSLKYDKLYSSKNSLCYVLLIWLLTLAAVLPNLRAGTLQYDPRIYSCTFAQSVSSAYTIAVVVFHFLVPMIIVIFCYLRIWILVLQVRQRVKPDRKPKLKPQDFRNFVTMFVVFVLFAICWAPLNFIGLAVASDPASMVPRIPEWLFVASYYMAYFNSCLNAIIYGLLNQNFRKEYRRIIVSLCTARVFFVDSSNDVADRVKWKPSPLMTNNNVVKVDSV
Briefly: Tango β-arrestin recruitment assay, MT1 wildtype. Type of assay: cell-based. The following applies: normalized individually (basal 0%, maximum 100%); mean ± SEM, minimum of 3 assays; read-out: pEC50, Tango, MT1 WT (converted). The procedure: (§2) In brief, HTLA cells were transiently transfected with receptor TANGO DNA constructs overnight in DMEM with 10% FBS. Transfected cells were then plated into poly-L-Lys coated 384-well plates using DMEM supplemented with 1% dialyzed FBS. After 6 hr incubation, drug dilutions, prepared in DMEM with 1% dFBS, were added for incubation overnight (16–20 hr). Medium and drug solutions were removed, Bright-Glo reagent (20 uL/well) was added for luminescence counting 20 min later. Results were analyzed in GraphPad Prism 7.0.

Assay [1] concerns the target T3, MT1 Y281F mutant receptor (Homo sapiens, UniProt P48039, Y281F).
T3 construct: expressed in transfected cells; host or cells: HTLA cells (HEKT based)
In words: Tango β-arrestin recruitment assay, MT1 Y281F mutant. Type of assay: cell-based. The procedure:
as §2
(In general: Activated receptors often draw arrestin, which recruitment assays turn into a signal.)

The next assay concerns the target T4, 5-HT1D (Homo sapiens, UniProt P28221).
T4 construct: expressed in transfected cells; host or cells: HEK293T, transient transfection (NIMH PDSP)
Briefly: Off-target radioligand binding, 5-HT1D. Here is the method: as §1

The target of the next assay is T5, 5-HT7A (Homo sapiens, UniProt P34969).
T5 construct: expressed in transfected cells; host or cells: HEK293T, transient transfection (NIMH PDSP)
T5 sequence (P34969 1-445 isoform P34969-2): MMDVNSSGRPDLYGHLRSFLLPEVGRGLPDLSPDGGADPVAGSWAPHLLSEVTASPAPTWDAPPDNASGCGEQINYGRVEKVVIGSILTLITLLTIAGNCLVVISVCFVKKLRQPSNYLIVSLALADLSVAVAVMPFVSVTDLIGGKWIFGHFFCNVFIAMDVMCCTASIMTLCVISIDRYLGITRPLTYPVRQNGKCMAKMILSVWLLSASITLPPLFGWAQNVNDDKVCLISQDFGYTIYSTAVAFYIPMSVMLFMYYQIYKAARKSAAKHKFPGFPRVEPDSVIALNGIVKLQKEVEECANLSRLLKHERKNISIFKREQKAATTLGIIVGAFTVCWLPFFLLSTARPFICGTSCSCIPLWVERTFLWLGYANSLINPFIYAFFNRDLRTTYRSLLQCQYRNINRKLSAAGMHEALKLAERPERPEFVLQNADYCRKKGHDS
Briefly: Off-target radioligand binding, 5-HT7A. The procedure:
as §1

The next assay has as its target T6, MT2 (Homo sapiens, UniProt P49286).
T6 sequence (P49286 1-362): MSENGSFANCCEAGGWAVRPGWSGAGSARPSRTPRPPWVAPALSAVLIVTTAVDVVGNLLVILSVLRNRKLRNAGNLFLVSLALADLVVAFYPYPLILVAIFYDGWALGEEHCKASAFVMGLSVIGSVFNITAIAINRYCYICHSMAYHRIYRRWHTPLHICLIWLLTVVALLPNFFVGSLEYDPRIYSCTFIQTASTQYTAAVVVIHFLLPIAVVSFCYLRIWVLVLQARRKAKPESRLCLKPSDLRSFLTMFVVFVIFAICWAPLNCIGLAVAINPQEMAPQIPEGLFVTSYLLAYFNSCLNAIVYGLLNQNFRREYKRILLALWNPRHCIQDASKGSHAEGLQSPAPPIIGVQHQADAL
Briefly: Bias factor, Gi-cAMP versus Tango (Black and Leff operational model), MT2. The arrangement: expressed in transfected cells; host or cells: HEK293T (ATCC CRL-11268), transient transfection. The following applies: G-protein over β-arrestin at MT2; reference melatonin; 10^ΔΔLog(τ/KA). Format: cell-based. Here is the method: Bias factors were estimated according to the published procedure [Kenakin et al. (2012)] with modifications. Briefly, normalized and pooled results were analyzed by fitting the Black and Leff operational model in Prism 7.0 to obtain Log(τ/KA) values for each pathway (Tango and Gi-cAMP). Within each signaling pathway, a difference of Log(τ/KA), ΔLog(τ/KA), between a test compound and selected reference (melatonin in this case) was calculated. For a testing compound, the difference of ΔLog(τ/KA), ΔΔLog(τ/KA), was then obtained between two pathways. The bias factor is 10^ΔΔLog(τ/KA).

T4 sequence (P28221 whole entry, species assumed): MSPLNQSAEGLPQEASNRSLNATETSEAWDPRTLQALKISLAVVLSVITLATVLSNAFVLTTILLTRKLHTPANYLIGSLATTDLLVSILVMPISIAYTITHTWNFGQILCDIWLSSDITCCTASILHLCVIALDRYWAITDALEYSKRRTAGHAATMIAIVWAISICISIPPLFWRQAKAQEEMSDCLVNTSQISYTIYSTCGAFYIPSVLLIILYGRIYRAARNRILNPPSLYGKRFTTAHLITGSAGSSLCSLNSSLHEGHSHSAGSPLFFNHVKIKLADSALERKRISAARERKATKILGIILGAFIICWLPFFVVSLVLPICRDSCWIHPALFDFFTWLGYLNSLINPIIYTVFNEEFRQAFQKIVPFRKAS
T3 sequence (P48039 whole entry Y281F): as the sequence (P48039 whole entry) above, with Y281F counted along it
T1 sequence (P48039 whole entry): as the sequence (P48039 whole entry) above

For orientation: inhibition means the share of the control response that was lost under treatment. With `COc1ccc2[nH]cc(CCNC(N)=O)c2c1` [Compound 28, [2-(5-methoxy-1H-indol-3-yl)ethyl]urea], the Ki was 16.6 nM on MT1; 1510 nM at 5-HT1D (read-out: pKi, 5-HT1D (converted)); 288 nM on 5-HT7A (read-out: pKi, 5-HT7A (converted)). Besides, the EC50 was 22.9 nM on MT1 wildtype (WT) and 4680 nM in assay [1] (normalized individually (basal 0%, maximum 100%), mean ± SEM, minimum of 3 assays, read-out: pEC50, Tango, MT1 Y281F (converted)). Besides, the “reduction of potency, MT1 Y281F versus WT” value in assay [1] (Tango) is more than 100 fold. Besides, the inhibition at 10 µM on 5-HT1D (10 μM) and at 5-HT7A (10 μM) was more than 50% throughout. In addition, at MT2, the bias factor is listed as 33.9.
